Patent US20070275382A1, “Biomarkers for the Efficacy of Somatostatin Analogue Treatment” (priority 2003, published 2007)
*1 amine or outer side, *2 acyl side, *3 side chain or, on linkers, in order; H or OH if unused. Where a SMILES comes first, the peptide text is derived from it. Side-chain parts run from the residue outwards. [ ]: non-standard residue; d: D form. The star is where a group is joined. Ethylenediamine = C(CN[*:2])N[*:1]; Hyp = O=C(O)[CH]1C[CH](O)CN1; Phg = N[CH](C(=O)O)c1ccccc1; CO = O=C([*:1])[*:2]; Bn = c1ccc(C*)cc1

System: Kidney
Experiment: Microarray gene expression profiling (HG-U95A), kidney
Type: in vivo, cynomolgus monkeys
Experimental: Origin of tissue and processing. Male and female cynomolgus monkeys received subcutaneously pasireotide (100 μg/animal/day) or the vehicle for 14 days. On day 15, all animals were sacrificed and tissues for RNA extraction were immediately snap-frozen and kept at −80° C. until processing.
RNA expression profiling was conducted by means of the HG-U95A gene expression probe array (Affymetrix; Santa Clara, Calif. USA), containing more than 12,600 probe sets interrogating primarily full-length human genes and also some control probe sets. The experiment was conducted according to the recommendations of the manufacturer. Briefly, total RNA was obtained by acid guanidinium thiocyanate-phenol-chloroform extraction (Trizol®, Invitrogen Life Technologies, San Diego, Calif. USA) from each frozen tissue section. The total RNA was then purified on an affinity resin (Rneasy®, Qiagen) and quantified. Double stranded cDNA was synthesized with a starting amount of approximately 5 μg full-length total RNA using the Superscript® Choice System (Invitrogen Life Technologies, Carlsbad, Calif. USA) in the presence of a T7-(dT)24 DNA oligonucleotide primer. Following synthesis, the cDNA was purified by phenol/chloroform/isoamyl alcohol extraction and ethanol precipitation. The purified cDNA was then transcribed in vitro using the BioArray® High Yield RNA Transcript Labeling Kit (ENZO, Farmingdale, N.Y. USA) in the presence of biotinylated ribonucleotides form biotin labelled cRNA. The labelled cRNA was then purified on an affinity resin (Rneasy®, Qiagen), quantified and fragmented. An amount of approximately 10 μg labelled cRNA was hybridized for 16 hours at 45° C. to an expression probe array. The array was then washed and stained twice with streptavidin-phycoerythrin (Molecular Probes,) using the GeneChip® Fluidics Workstation 400 (Affymetrix, Santa Clara, Calif. USA). The array was then scanned twice using a confocal laser scanner (GeneArray® Scanner, Agilent, Palo Alto, Calif. USA) resulting in one scanned image. This resulting “.dat-file” was processed using the MAS4 program (Affymetrix) into a “.cel-file”. The “.cel file” was captured and loaded into the Affymetrix GeneChip® Laboratory Information Management System (LIMS). The LIMS database is connected to a UNIX Sun Solaris server through a network filing system that allows for the average intensities for all probes cells (CEL file) to be downloaded into an Oracle database (NPGN). Raw data was converted to expression levels using a “target intensity” of 150. The data were evaluated for quality control and loaded in the GeneSpring® software 4.2.4 (Silicon Genetics, Calif. USA) for analysis.
On the human Affymetrix HGU95Av2 chip, probe sets for individual genes contain 20 oligonucleotide pairs, each composed of a “perfect match” 25-mer and a “mismatch” 25-mer differing from the “perfect” match oligonucleotide at a single base. After probe labelling, hybridization, and laser scanning, the expression level was estimated by averaging the differences in signal intensity measured by oligonucleotide pairs of a given probe (AvgDiff value). The fold changes and directions were calculated for selected genes, from the differences of the AvgDiff values between controls and treated.
To identify genes that were impacted by pasireotide, the dataset was initially filtered to exclude in a first wave of analysis, genes whose values were systematically in the lower expression ranges where the experimental noise is high (at least 80 in a number of experiments corresponding to the smallest number of replicas of any experimental point). In a second round of selection a threshold p-value of 0.05 (based on a t-test) identified differences between treated and control based on a two component error model (Global Error Model) and, whenever possible, with a stepdown correction for multi-hypothesis testing (Benjamini and Hochberg false discovery rate). […]

[1] = ↑ increase, treated vs controls
[2] = ↓ decrease, treated vs controls

SMILES: NCCCCC1NC(=O)C(Cc2c[nH]c3ccccc23)NC(=O)C(c2ccccc2)NC(=O)C2CC(OC(=O)NCCN)CN2C(=O)C(Cc2ccccc2)NC(=O)C(Cc2ccc(OCc3ccccc3)cc2)NC1=O (stereo not drawn) [Pasireotide, cyclo[4-(NH2—C2H4—NH—CO—O)Pro-Phg-DTrp-Lys-Tyr(4-Bzl)-Phe]] (cyclo(F[Hyp]([CO-Ethylenediamine])[Phg]WKY(Bn)); configuration not given here)
- IGF-1 expression level, AvgDiff (range) (0.1 mg/animal/14day): 25 (20 to 39)
- IGFBP2 expression level, AvgDiff (range) (0.1 mg/animal/14day): 563 (457 to 655)
- IR expression level, AvgDiff (range) (0.1 mg/animal/14day): 196 (163 to 265)
- SSTR2 expression level, AvgDiff (range) (0.1 mg/animal/14day): 126 (93 to 158)
- SSTR3 expression level, AvgDiff (range) (0.1 mg/animal/14day): 82 (33 to 120)
- Adrenomedullin RNA expression fold change [1]: ↑ x1.5
- Arginine vasopressin (neurophysin II, antidiuretic hormone, diabetes insipidus, neurohypophyseal) RNA expression fold change [1]: ↑ x2
- CDC37 (cell division cycle 37, S. cerevisiae, homolog) RNA expression fold change [1]: homolog) ↑ x1.5
- CSF-1 receptor, formerly McDonough feline sarcoma viral (v-fms) oncogene homolog RNA expression fold change [1]: homolog ↑ x2.5
- Ca++ channel, voltage-dependent, α 1H subunit RNA expression fold change [1]: subunit ↑ x2
- Calcium/calmodulin-dependent protein kinase kinase 2, β RNA expression fold change [1]: ↑ x1.5
- Cdk 5, regulatory subunit 2 (p39) RNA expression fold change [1]: ↑ x1.5
- Cdki 1A (p21, Cip 1) RNA expression fold change [1]: Cip 1) ↑ x5
- Corticotropin releasing hormone receptor type 2 beta isoform RNA expression fold change [1]: ↑ x1.5
- Dopamine receptor D2 RNA expression fold change [1]: ↑ x4.5
- Fas/Apo-1/CD95 RNA expression fold change [1]: ↑ x1.5
- GABA (A) receptor, γ2 precursor RNA expression fold change [1]: precursor ↑ x2
- GFR-bound protein 7 RNA expression fold change [1]: protein 7 ↑ x2
- GFR-bound protein 14 RNA expression fold change [1]: protein 14 ↑ x2
- Growth arrest-specific 6 RNA expression fold change [1]: specific 6 ↑ x1.5
- IGFBP2 RNA expression fold change [1]: IGFBP2 ↑ x1.5
- IL-7 R precursor RNA expression fold change [1]: ↑ x2
- IRF5 RNA expression fold change [1]: IRF5 ↑ x2
- K+ voltage-gated channel, Shaw-related subfamily, member 3 RNA expression fold change [1]: member 3 ↑ x2.5
- LIF (cholinergic differentiation factor) RNA expression fold change [1]: factor) ↑ x2
- Natriuretic peptide receptor A/guanylate cyclase A (atrionatriuretic peptide receptor A) RNA expression fold change [1]: A) ↑ x2
- Opioid receptor, δ1 RNA expression fold change [1]: δ1 ↑ x2.5
- PDGFR, α polypeptide RNA expression fold change [1]: polypeptide ↑ x1.5
- Putative chemokine receptor; GTP-binding protein RNA expression fold change [1]: ↑ x2
- SSTR2 RNA expression fold change [1]: SSTR 2↑ x2
- SSTR 3 RNA expression fold change [1]: SSTR 3↑ x3
- Solute carrier family 9 (Na+/H+ exchanger) isoform 3 regulatory factor 1 RNA expression fold change [1]: ↑ x2
- TGF, β1 RNA expression fold change [1]: TGF, β 1 ↑ x1.5
- THR binding protein RNA expression fold change [1]: protein ↑x1.5
- THR, α (avian erythroblastic leukaemia viral (v-erb-a) oncogene homolog) RNA expression fold change [1]: homolog) ↑x1.5
- TNFR superfamily, member 12 RNA expression fold change [1]: ↑ x2
- VWF precursor RNA expression fold change [1]: precursor ↑ x2
- δ sleep inducing peptide, immunoreactor RNA expression fold change [1]: x2.5
- Acetylserotonin O-methyl transferase-like RNA expression fold change [2]: ↓ x3
- Angiotensin receptor 1B RNA expression fold change [2]: 1B ↓ x1.5
- Calmodulin 3 (phosphorrylase kinase, δ) RNA expression fold change [2]: ↓ x1.5
- Cdk (CDC2-like) RNA expression fold change [2]: ↓ x2
- Death effecter domain-containing RNA expression fold change [2]: ↓ x3.5
- Glucocorticoid receptor DNA binding factor 1 RNA expression fold change [2]: ↓ x4.5
- Glutamate receptor, metabotropic 2 precursor RNA expression fold change [2]: precursor ↓ x3
- IGF-1 RNA expression fold change [2]: IGF-1 ↓ x2.5
- IGF-2 RNA expression fold change [2]: IGF-2 ↓ x2
- Insulin receptor RNA expression fold change [2]: ↓ x3
- Na+ channel, nonvoltage-gated 1, β (Liddle syndrome) RNA expression fold change [2]: syndrome) ↓ x2
- PG-endoperoxide synthase 1 (prostaglandin G/H synthase and cyclooxygenase) RNA expression fold change [2]: ↓ x3.5
- PI-3-kinase, catalytic, α polypeptide RNA expression fold change [2]: polypeptide ↓ x3
- PP 3 (formerly 2B), catalytic subunit, β isoform (calcineurin A β) RNA expression fold change [2]: A β) ↓ x2
- Solute carrier family 6 (neurotransmitter transporter, creatin), member 8 RNA expression fold change [2]: ↓ x3
- THR-associated protein, 240kδ subunit RNA expression fold change [2]: subunit ↓ x1.5
- TNF, α-induced protein 3 RNA expression fold change [2]: ↓ x1.5
- Vasopressin-activated calcium-mobilizing receptor-1 RNA expression fold change [2]: receptor-1 ↓ x2
